Measurements from paper PMC12276312 (Nature Communications, 2025).

Columns and labels:
[1] = molecular target: T1, MxaF/MxaJ complex (Methylorubrum extorquens, UniProt P16027); assay: isothermal titration calorimetry; assay type: binding
T1 sequence (P16027 28-626): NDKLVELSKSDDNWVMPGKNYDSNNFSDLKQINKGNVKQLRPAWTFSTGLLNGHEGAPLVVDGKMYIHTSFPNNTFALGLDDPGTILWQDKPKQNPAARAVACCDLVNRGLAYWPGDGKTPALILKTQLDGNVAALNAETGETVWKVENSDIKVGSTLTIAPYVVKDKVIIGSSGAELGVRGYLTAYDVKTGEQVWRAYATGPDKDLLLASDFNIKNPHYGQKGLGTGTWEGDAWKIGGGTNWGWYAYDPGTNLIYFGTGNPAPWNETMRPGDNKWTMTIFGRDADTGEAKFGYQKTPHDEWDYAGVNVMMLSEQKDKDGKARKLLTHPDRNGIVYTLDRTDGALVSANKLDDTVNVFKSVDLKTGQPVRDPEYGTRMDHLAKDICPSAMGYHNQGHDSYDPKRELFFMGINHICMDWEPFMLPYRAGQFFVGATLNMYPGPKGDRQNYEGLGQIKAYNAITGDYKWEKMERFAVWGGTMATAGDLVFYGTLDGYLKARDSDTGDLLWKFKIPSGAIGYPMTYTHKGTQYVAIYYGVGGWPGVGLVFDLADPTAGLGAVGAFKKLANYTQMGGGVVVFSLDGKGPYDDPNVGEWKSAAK
T1 sequence (P16028 26-300 partner): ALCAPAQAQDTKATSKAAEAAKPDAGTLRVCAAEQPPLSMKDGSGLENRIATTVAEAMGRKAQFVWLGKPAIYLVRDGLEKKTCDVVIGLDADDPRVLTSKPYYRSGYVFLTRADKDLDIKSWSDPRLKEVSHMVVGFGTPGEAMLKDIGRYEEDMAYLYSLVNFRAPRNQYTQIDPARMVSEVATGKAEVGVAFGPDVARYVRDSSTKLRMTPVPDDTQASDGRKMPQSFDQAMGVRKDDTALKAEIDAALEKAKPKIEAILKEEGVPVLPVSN

[2] = molecular target: the molecule itself; assay: cryo-EM structure

Molecule `O=C(O)c1cc(C(=O)O)c2c(n1)C(=O)C(=O)c1cc(C(=O)O)[nH]c1-2` [PQQ] has a Kd [1] of roughly 77 nM.

B1: MxaF, untagged, co-expressed with MxaJ-His6 for cryo-EM (enzyme, Methylobacterium extorquens AM1, UniProt P16027 28-626, looked up)
chain: NDKLVELSKSDDNWVMPGKNYDSNNFSDLKQINKGNVKQLRPAWTFSTGLLNGHEGAPLVVDGKMYIHTSFPNNTFALGLDDPGTILWQDKPKQNPAARAVACCDLVNRGLAYWPGDGKTPALILKTQLDGNVAALNAETGETVWKVENSDIKVGSTLTIAPYVVKDKVIIGSSGAELGVRGYLTAYDVKTGEQVWRAYATGPDKDLLLASDFNIKNPHYGQKGLGTGTWEGDAWKIGGGTNWGWYAYDPGTNLIYFGTGNPAPWNETMRPGDNKWTMTIFGRDADTGEAKFGYQKTPHDEWDYAGVNVMMLSEQKDKDGKARKLLTHPDRNGIVYTLDRTDGALVSANKLDDTVNVFKSVDLKTGQPVRDPEYGTRMDHLAKDICPSAMGYHNQGHDSYDPKRELFFMGINHICMDWEPFMLPYRAGQFFVGATLNMYPGPKGDRQNYEGLGQIKAYNAITGDYKWEKMERFAVWGGTMATAGDLVFYGTLDGYLKARDSDTGDLLWKFKIPSGAIGYPMTYTHKGTQYVAIYYGVGGWPGVGLVFDLADPTAGLGAVGAFKKLANYTQMGGGVVVFSLDGKGPYDDPNVGEWKSAAK
In the case of B1, the “stoichiometry N” value [2] is reported as 2.
